Entries after “also recorded” stand apart in the source; their conditions may differ. Where two headings read alike, the source gives them in different places. Marks after values point to notes of the source that are not given here. Where a SMILES comes first, the peptide text is derived from it.
Legend:
[1] = Distribution ratio (logD) in ionic liquid-based aqueous two-phase system (Ammoeng 110/K2HPO4); conditions: Ammoeng 110 (0.60–0.65 g, filled to 4 g) / K2HPO4-KH2PO4 buffer, vortex 45 s, 5 min phase separation, LC–MS after EZ:faast SPE and derivatization (peptides after 6 M HCl hydrolysis, 20 h, 110 °C), duplicates, numbers only plotted (Fig. 2, Fig. 3)
[2] = design: method as in 2 sources, ref Hardy (1985) ||| ref Jakubke and Jeschkeit (1982); conditions: isoelectric point of free amino acid, cited from earlier work
[3] = design: method as in Kyte and Dolittle (1982); conditions: hydropathy scale; ref Kyte and Dolittle (1982); cited from earlier work

Row | SMILES | Distribution in IL-ATPS (logD, D = c upper phase / c lower phase), in words ([1]; pH 6.0) | Distribution in IL-ATPS (logD, D = c upper phase / c lower phase), in words ([1]; pH 7.0) | pI ([2]; ref Hardy (1985)) | Hydrophobicity of the side chain [3] | pI ([2]; ref Jakubke and Jeschkeit (1982))
1 | C[C@H](N)C(=O)N[C@@H](C)C(=O)N[C@@H](CC(=O)O)C(=O)N[C@@H](C)C(=O)N[C@@H](C)C(=O)O [AADAA] | concentrated in the ionic liquid-containing upper phase | concentrated in the ionic liquid-containing upper phase | – | – | –
2 | C[C@H](N)C(=O)N[C@@H](C)C(=O)N[C@@H](Cc1ccccc1)C(=O)N[C@@H](C)C(=O)N[C@@H](C)C(=O)O [AAFAA] (H-AAFAA-OH) | concentrated in the ionic liquid-containing upper phase | concentrated in the ionic liquid-containing upper phase | – | – | –
3 | C[C@H](N)C(=O)N[C@@H](C)C(=O)NCC(=O)N[C@@H](C)C(=O)N[C@@H](C)C(=O)O [AAGAA] (H-AAGAA-OH) | almost equally distributed between the two phases | almost equally distributed between the two phases; also recorded: slightly more concentrated in the ionic liquid rich upper phase | – | – | –
4 | C[C@H](N)C(=O)N[C@@H](C)C(=O)N[C@@H](Cc1c[nH]cn1)C(=O)N[C@@H](C)C(=O)N[C@@H](C)C(=O)O [AAHAA] | enriched in the upper phase | accumulation of AAHAA in the upper phase was also detected, but not as strong as at pH 6.0 | – | – | –
5 | CC(C)C[C@H](NC(=O)[C@H](C)NC(=O)[C@H](C)N)C(=O)N[C@@H](C)C(=O)N[C@@H](C)C(=O)O [AALAA] (H-AALAA-OH) | almost equally distributed between the two phases | almost equally distributed between the two phases; also recorded: slightly more concentrated in the ionic liquid rich upper phase | – | – | –
6 | C[C@H](N)C(=O)N[C@@H](C)C(=O)N[C@@H](CO)C(=O)N[C@@H](C)C(=O)N[C@@H](C)C(=O)O [AASAA] (H-AASAA-OH) | concentrated in the ionic liquid-containing upper phase | concentrated in the ionic liquid-containing upper phase | – | – | –
7 | N[C@@H](CCC(=O)O)C(=O)O [Glutamic acid] | strongly enriched in the ionic liquids-containing upper phase | strongly enriched in the ionic liquids-containing upper phase | 3.24^a | – | –
8 | NCC(=O)O [Glycine] | distributed equally between the ionic liquid-rich upper and the phosphate-rich lower phase | distributed more into the ionic liquid-rich upper phase | 5.97^a | – | –
9 | N[C@@H](Cc1c[nH]cn1)C(=O)O [Histidine] | strongly enriched in the ionic liquids-containing upper phase | strongly enriched in the ionic liquids-containing upper phase | 7.59^a | – | –
10 | CC(C)C[C@H](N)C(=O)O [Leucine] | distributed equally between the ionic liquid-rich upper and the phosphate-rich lower phase | marginally higher concentrated in the phosphate buffer-rich lower phase | – | – | –
11 | N[C@@H](Cc1ccccc1)C(=O)O [Phenylalanine] | strongly enriched in the ionic liquids-containing upper phase | strongly enriched in the ionic liquids-containing upper phase | – | 2.8^c | 5.48^b
12 | N[C@@H](CO)C(=O)O [Serine] | distributed equally between the ionic liquid-rich upper and the phosphate-rich lower phase | distributed more into the ionic liquid-rich upper phase | 5.68^a | – | –

From paper PMC5918145, “Quantification of amino acids and peptides in an ionic liquid based aqueous two-phase system by LC–MS analysis” (AMB Express, 2018)
